Test results published in US20060293343A1, “Pyrimidine derivatives” (Asahi Kasei Pharma Corporation, priority 2005, published 2006).
Read-outs that look alike come from different tables or passages of the source.

Assays:
PDE4 = test system: T1, PDE4; assay: Inhibitory action of PDE4 enzyme activity (PDE4 purified from U937 cells); type: biochemical; conditions: PDE4 fraction purified from U937 cells; [3H]-cAMP substrate; 30° C., 10 minutes
T1 construct: The PDE4 enzyme was purified from U937 cells that are the cells derived from lymphoma
Procedure: (1) Purification of PDE4 from U937 Cells
The PDE4 enzyme was purified from U937 cells that are the cells derived from lymphoma. U937 cells were suspended in buffer solution A (20 mM Tris-HCl(pH 6.5), 1 mM MgCl2, 0.1 mM EGTA, 3 mM 2-mercaptoethanol) containing protease. inhibitor cocktail (manufactured by Sigma Co.), and a soluble fraction was obtained by centrifugation after ultrasonic disintegration (100,000 G, 30 minutes, 4° C.). […] Each fraction was tested for the cAMP metabolized PDE activity to identify the fractions containing PDE4 enzyme.
(2) Measurement of Inhibitory Activity of PDE4 Enzyme Activity
A desired concentration of the test compound was allowed to react in a reaction mixture (100 μL; 40 mM Tris-HCl (pH 7.4), 5 MM MgCl2, 4 mM 2-mercaptoethanol, […] cAMP, 0.83 μCi [^3H]-cAMP and PDE4 fraction) at 30° C. for 10 minutes. The enzyme reaction was stopped by adding 25 μL of trichloroacetic acid to the reaction mixture. The reaction solution was charged on a neutral alumina column equilibrated with 0.1 M of 2-[[tris(hydroxylmethyl)methyl]-amino]-1-ethanesulfonic acid (TES) buffer (pH 8.0) and, after washing the column with a sufficient amount of 0.1 M TES buffer solution, the column was eluted with 2N NaOH. A 500 μL aliquot of the eluate containing [^3H]-5′AMP product was filled in a scintillation vial containing the scintillation cocktail (5 ml, manufactured by Perkin Elmer Co.) to measure radioactivity. […] The inhibitory action of PDE4 enzyme activity was expressed by IC50 (nM). Ex. No. in Table 8 denotes the example No.

[1] = test system: TNF-α production in LPS-stimulated mouse mononuclear cells; assay: Inhibitory action of TNF-α production using mouse mononuclear cells (in vitro); type: cell-based; conditions: mouse mononuclear cells from peripheral blood of C3H/He mouse; LPS 5 μg/mL, 21 hours; TNF-α ELISA; read-out: IC50 (nM), suppression action of TNF-α production
Procedure: Mouse mononuclear cells were isolated from the peripheral blood of C3H/He mouse (manufactured by Japan SLC Co., male), and were suspended in a culture medium (trade name RPMI 1640 manufactured by Gibco Co.) containing 10% bovine serum. The cells were seeded in a 96 well plate as 50,000 cells/well, the test compound was added at a desired concentration, and the plate was allowed to stand in an incubator containing 5% CO2 at .37° C. for 15 minutes. LPS was added thereafter at a final concentration of 5 μg/mL, and the plate was allowed to stand in the incubator for 21 hours.
The culture medium containing produced TNF-α was retrieved, and the amount of TNF-α was measured according to the protocol attached to mouse TNF-α ELISA kit (manufactured by R & D Systems Co.). […] The suppression action of TNF-α was expressed-by […] (nM). Ex. No. in Table 9 denotes the example No.

[2] = test system: TNF-α production induced by LPS; assay: Inhibitory action of TNF-α production (in vivo) induced by LPS using mouse
Procedure: C3H/He mouse (manufactured by Japan SLC Co., male) was used as a test animal. A desired concentration of the test sample was suspended in 0.5% methyl cellulose solution. The weight of the mouse was measured, and the test compound solution was orally administered at a dosage of 10 mL/kg while only 0.5% methyl cellulose was administered to the reference group. One group contained 5 to 7 mice. LPS was dissolved in physiological saline, and 10 μg was intraperitoneally administered to each mouse. The test compound was administered first, then LPS was administered 60 minutes thereafter. After 90 minutes, the blood was sampled from the large abdominal vein with the heparin, and a plasma was obtained by centrifugation. The content of TNF-α in the plasma was measured according to the protocol attached to TNF-α ELISA kit (manufactured by R & D System Co.). […] The suppression action of TNF-α production was represented by ED50 (mg/kg). Ex. No. in Table 11 denotes the example No.

[3] = test system: rabbit gastric gland cells; assay: Action on gastric acid secretion ability (in vitro), 14C-aminopyrine uptake in gastric gland cells; type: cell-based; conditions: Oryctolagus cuniculus, histamine 0.3 to 1.0 μM
Procedure: Gastric acid secretion ability (as an index of the side effect) was tested according to the methods by BergLindh and Obrink (Acta Physiol. Scand. 97:401-414, 1976) and Sack and Speney (Am. J. Physiol. 243:G313-G319, 1982).
Gastric gland cells were prepared by collagenase treatment using male rabbit (Japanese white strain, manufactured by Oriental Yeast Co.).
The test compound, ^14C-aminopyrine (1.0 nmol/mL; 0.1 μCi/nmol) and histamine (0.3 to 1.0 μM) were incubated for a given time period, and gastric gland cell pellets obtained after centrifugation and washing were lysed with 100 μL of 1N-KOH. The lysate was filled in a scintillation vial containing a scintillation cocktail (manufactured by Perkin Elmer Co.) to measure the radioactivity. The gastric acid secretion action by the test compound was calculated as EC50, and the ratio of the activity relative to IC50 of suppression of TNF-α production described in Test Example 2 (degree of dissociation A) was determined from the following equation. The larger degree of dissociation A is more preferable. The results in Table 10 represent that secretion of the gastric acid ability(EC50) was lower activity in the compound of the invention, salts thereof or prodrugs thereof as compared with the suppression effect of TNF-α production(IC50). Ex. No. in Table 10 denotes the example No.
Degree of dissociation A=EC50 of gastric acid secretion ability/IC50 of suppression of TNF-α production

C3H/He mouse = assay: Gastric emptying test of mouse (in vivo); conditions: oral, test meal 60 minutes after compound
Procedure: C3H/He mouse (manufactured by Japan SLC Co., male) fasted for 21 to 24 hours but allowed free access to water, was used as an experimental animal. A desired concentration of the test sample was suspended in 0.5% methyl cellulose solution. The weight of the mouse was measured, and the test compound solution was orally administered at a dosage of 10 mL/kg while only 0.5% methyl cellulose solution was administered to the reference group. One group contained 5 mice. A 1.5% methyl cellulose solution containing 0.05% phenol, red was used as a test meal solution. The test compound was administered, and 0.2 ml of the test meal was orally administered at 60 minutes thereafter. […] A 10% trichloroacetic acid solution (0.5 mL) was added to 5 mL of the supernatant, which was further centrifuged to remove proteins. A solution prepared by adding 125 μL of 2 N NaOH to the supernatant (1 mL) obtained by centrifugation was measured with a spectrophotometer (550 nm), and inhibition of transfer from the stomach to the small intestine was expressed by IC50 (mg/kg).

Marshall ferret = assay: Vomiting action using ferret; type: in vivo; conditions: oral, observed for more than 6 hours
Procedure: Marshall ferret (male, weight 1 to 1.5 kg, manufactured by Charles River Laboratories Japan, Inc.) was used. A desired concentration of the test compound was suspended in 0.5% methyl cellulose solution. The weight of a ferret was measured, and the solution of the test compound was orally administered at a dosage of 1 to 8 ml/kg. Only 0.5% methyl cellulose solution was administered to the reference group. One group contained 4 animals.

[4] = C3H/He mouse, orally administered 60 minutes before LPS 10 μg intraperitoneally, plasma TNF-α 90 minutes after LPS, read-out: ED50 (mg/kg), suppression action of TNF-α production
[5] = mouse, oral, LPS 60 minutes after compound, plasma TNF-α after 90 minutes, read-out: suppression of TNF-α production ED50

CCc1c(C)nc(-c2ccc(Br)s2)nc1Nc1ccc(CC(=O)NO)cc1 [Example 192]
IC50 (PDE4): 89 nM

CCc1c(C)nc(-c2cccs2)nc1Nc1ccc(CC(=O)O)cc1 [Example 6]
IC50 (PDE4): 2940 nM
IC50 [1]: 4930 nM

C=CCc1c(C)nc(-c2ccoc2)nc1Nc1ccc2cc(C(=O)O)ccc2c1 [Example 23]
IC50 (PDE4): 633 nM
IC50 [1]: 2110 nM

CCc1c(C)nc(-c2ccsc2)nc1Nc1ccc(C(=O)O)cc1 [Example 18]
ED50 [2, 4]: 37 mg/kg
IC50 (PDE4): 1680 nM
IC50 [1]: 202 nM

CCc1c(C)nc(-c2ccc(SC)s2)nc1Nc1ccc(CC(=O)O)cc1 [Example 78]
EC50 [3]: 38400 nM
IC50 [1]: 171 nM

CCc1c(C)nc(-c2cccs2)nc1Nc1ccc(C(=O)O)cc1 [Example 5]
IC50 (PDE4): 1390 nM
IC50 [1]: 265 nM

CCc1nc(-c2cccs2)nc(Nc2ccc(CC(=O)O)cc2)c1CC [Example 84]
ED50 [2, 4]: 17 mg/kg
EC50 [3]: 1660 nM
IC50 [1]: 533 nM

CCc1nc(-c2ccsc2)nc(Nc2ccc(CC(=O)O)cc2)c1CC [Example 58]
ED50 [2, 4]: 8 mg/kg
EC50 [3]: 1310 nM
IC50 [1]: 695 nM

CCc1c(C)nc(-c2cccs2)nc1Nc1ccc2cc(C(=O)O)ccc2c1 [Example 7]
IC50 (PDE4): 409 nM
IC50 [1]: 267 nM

CCc1nc(-c2cc(C)c(C)s2)nc(Nc2ccc3cc(C(=O)O)ccc3c2)c1CC [Example 155]
IC50 (PDE4): 845 nM

CCc1nc(-c2ccsc2)nc(Nc2ccc3cc(C(=O)O)ccc3c2)c1CC [Example 59]
ED50 [2, 4]: 6 mg/kg
EC50 [3]: 227 nM
IC50 (PDE4): 41 nM
IC50 [1]: 69 nM

CCc1c(C)nc(-c2ccc(Br)s2)nc1Nc1ccc(CC(=O)O)cc1 [Example 148]
ED50 [2, 4]: 12 mg/kg
ED50 [2, 5]: 12 mg/kg
gastric emptying test IC50 (inhibition of transfer from the stomach to the small intestine) (C3H/He mouse): 85 mg/kg
EC50 [3]: 10100 nM
incidence of vomiting by the ferret (Marshall ferret; dosage of 100 mg/kg): no incidence of vomiting
IC50 [1]: 676 nM

C=CCc1c(CC)nc(-c2ccc(C)s2)nc1Nc1ccc2cc(C(=O)O)ccc2c1 [Example 209]
IC50 (PDE4): 192 nM

C=CCc1c(CC)nc(-c2ccc(CC)s2)nc1Nc1ccc2cc(C(=O)O)ccc2c1 [Example 201]
IC50 (PDE4): 133 nM

CCc1nc(-c2cccs2)nc(Nc2ccc3cc(C(=O)O)ccc3c2)c1CC [Example 85]
IC50 (PDE4): 76 nM
IC50 [1]: 29 nM

CCc1c(C)nc(-c2cc(Br)cs2)nc1Nc1ccc(CC(=O)NO)cc1 [Example 193]
IC50 (PDE4): 70 nM
IC50 [1]: 39 nM

CCc1nc(-c2ccco2)nc(Nc2ccc3cc(C(=O)O)ccc3c2)c1CC [Example 188]
IC50 (PDE4): 59 nM
IC50 [1]: 46 nM

CCc1ccc(-c2nc(CC)c(CC)c(Nc3ccc4cc(C(=O)O)ccc4c3)n2)s1 [Example 198]
IC50 (PDE4): 105 nM

C=CCc1c(CC)nc(-c2ccco2)nc1Nc1ccc2cc(C(=O)O)ccc2c1 [Example 191]
IC50 (PDE4): 90 nM
IC50 [1]: 44 nM

CCc1c(C)nc(-c2ccsc2)nc1Nc1ccc2cc(C(=O)O)ccc2c1 [Example 20]
IC50 (PDE4): 191 nM
IC50 [1]: 289 nM

CCc1c(C)nc(-c2ccc(SC)s2)nc1Nc1ccc2cc(C(=O)O)ccc2c1 [Example 79]
IC50 (PDE4): 117 nM

CCc1c(C)nc(-c2ccoc2)nc1Nc1ccc2cc(C(=O)O)ccc2c1 [Example 26]
IC50 (PDE4): 312 nM
IC50 [1]: 219 nM

C=CCc1c(CC)nc(-c2ccsc2)nc1Nc1ccc2cc(C(=O)O)ccc2c1 [Example 17]
ED50 [2, 4]: 3 mg/kg
ED50 [2, 5]: 3 mg/kg
gastric emptying test IC50 (inhibition of transfer from the stomach to the small intestine) (C3H/He mouse): 14 mg/kg
EC50 [3]: 1690 nM
IC50 (PDE4): 9 nM
incidence of vomiting by the ferret (Marshall ferret; dosage of 50 mg/kg): no incidence of vomiting
IC50 [1]: 24 nM

CCc1nc(-c2cccs2)nc(Nc2ccc(C(=O)O)cc2)c1CC [Example 83]
ED50 [2, 4]: 22 mg/kg
EC50 [3]: 169 nM
IC50 [1]: 46 nM

CCc1nc(-c2ccc(OC)s2)nc(Nc2ccc3cc(C(=O)O)ccc3c2)c1CC [Example 82]
IC50 (PDE4): 90 nM
IC50 [1]: 57 nM

CCc1nc(-c2ccc(C)s2)nc(Nc2ccc3cc(C(=O)O)ccc3c2)c1CC [Example 111]
ED50 [2, 4]: 15 mg/kg
IC50 [1]: 58 nM

C=CCc1c(C)nc(-c2cccs2)nc1Nc1ccc2cc(C(=O)O)ccc2c1 [Example 3]
IC50 (PDE4): 356 nM
IC50 [1]: 1900 nM

C=CCc1c(CC)nc(-c2cc(OC)cs2)nc1Nc1ccc2cc(C(=O)O)ccc2c1 [Example 185]
IC50 (PDE4): 156 nM

C=CCc1c(CC)nc(-c2ccoc2)nc1Nc1ccc2cc(C(=O)O)ccc2c1 [Example 105]
IC50 (PDE4): 116 nM

C=CCc1c(C)nc(-c2ccsc2)nc1Nc1ccc(C(=O)O)cc1 [Example 11]
ED50 [2, 4]: 26 mg/kg
IC50 (PDE4): 1170 nM
IC50 [1]: 790 nM

CCc1c(C)nc(-c2ccoc2)nc1Nc1ccc(C(=O)O)cc1 [Example 24]
IC50 (PDE4): 3250 nM
IC50 [1]: 865 nM

CCc1nc(-c2ccsc2)nc(Nc2ccc(C(=O)O)cc2)c1CC [Example 57]
ED50 [2, 4]: 24 mg/kg
EC50 [3]: 460 nM
IC50 [1]: 44 nM

CCCc1c(CC)nc(-c2ccsc2)nc1Nc1ccc(C(=O)O)cc1 [Example 15]
ED50 [2, 4]: 13 mg/kg
IC50 (PDE4): 490 nM
IC50 [1]: 55 nM
